Measured values taken from the supplement of paper PMC4862054.

Experiments:
Details in all cases: incubation time: 72 h
MFM-223 [1] = assay: normalised viability (% of control), CellTiter-Blue; higher = more viable cells (100 = DMSO, 0 = benzethonium chloride kill control)
Protocol: (§1)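 DSRT, CellTiter-Blue viability, 72 h incubation. Signal is normalised to DMSO and benzethonium chloride controls. Value is the normalised response at dose 1.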

BT-549 [2] = assay: as above
Protocol: as §1

MDA-MB-436 [3] = assay: as above
Protocol: as §1

HDQ-P1 [4] = assay: as above
Protocol: as §1

CAL-120 [5] = assay: as above
Protocol: as §1

CAL-85-1 [6] = assay: as above
Protocol: as §1

MDA-MB-453 [7] = assay: as above
Protocol: as §1

SK-BR-3 [8] = assay: as above
Protocol: as §1

MDA-MB-468 [9] = assay: as above
Protocol: as §1

HCC1599 [10] = assay: as above
Protocol: as §1

CAL-148 [11] = assay: as above
Protocol: as §1

CAL-51 [12] = assay: as above
Protocol: as §1

MDA-MB-231 [13] = assay: as above
Protocol: as §1

BT-474 [14] = assay: as above
Protocol: as §1

Hs578T [15] = assay: as above
Protocol: as §1

HCC1937 [16] = assay: as above
Protocol: as §1

DU-4475 [17] = assay: as above
Protocol: as §1

HCC1143 [18] = assay: as above
Protocol: as §1

MFM-223 [19] = assay: normalised response (% of control), CellTiter-Glo; higher = more viable cells (100 = DMSO, 0 = benzethonium chloride kill control)
Procedure, shortened: (§2)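 Breast cancer cell lines (20 µl suspension) were seeded into 384-well plates holding compound at 5 concentrations in 10-fold steps over a compound-specific 10,000-fold range, then incubated 72 h. CellTox Green fluorescence (485/520 nm) was read first, then CellTiter-Glo luminescence after 10 min at room temperature. Each plate was normalised to 0.1 % DMSO (100) and a positive kill control (0). Each value is the normalised signal at a single concentration of the series.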

BT-549 [20] = assay: as above
Procedure, shortened: as §2

MDA-MB-436 [21] = assay: as above
Procedure, shortened: as §2

HDQ-P1 [22] = assay: as above
Procedure, shortened: as §2

CAL-120 [23] = assay: as above
Procedure, shortened: as §2

CAL-85-1 [24] = assay: as above
Procedure, shortened: as §2

MDA-MB-453 [25] = assay: as above
Procedure, shortened: as §2

SK-BR-3 [26] = assay: as above
Procedure, shortened: as §2

MDA-MB-468 [27] = assay: as above
Procedure, shortened: as §2

HCC1599 [28] = assay: as above
Procedure, shortened: as §2

CAL-148 [29] = assay: as above
Procedure, shortened: as §2

CAL-51 [30] = assay: as above
Procedure, shortened: as §2

MDA-MB-231 [31] = assay: as above
Procedure, shortened: as §2

BT-474 [32] = assay: as above
Procedure, shortened: as §2

Hs578T [33] = assay: as above
Procedure, shortened: as §2

HCC1937 [34] = assay: as above
Procedure, shortened: as §2

DU-4475 [35] = assay: as above
Procedure, shortened: as §2

MCF-10A = assay: as above
Procedure, shortened: as §2

HCC1143 [36] = assay: as above
Procedure, shortened: as §2

SMILES	normalised viability (MFM-223 [1])	normalised viability (BT-549 [2])	normalised viability (MDA-MB-436 [3])	normalised viability (HDQ-P1 [4])	normalised viability (CAL-120 [5])	normalised viability (CAL-85-1 [6])	normalised viability (MDA-MB-453 [7])	normalised viability (SK-BR-3 [8])	normalised viability (MDA-MB-468 [9])	normalised viability (HCC1599 [10])	normalised viability (CAL-148 [11])	normalised viability (CAL-51 [12])	normalised viability (MDA-MB-231 [13])	normalised viability (BT-474 [14])	normalised viability (Hs578T [15])	normalised viability (HCC1937 [16])	normalised viability (DU-4475 [17])	normalised viability (HCC1143 [18])	normalised response (MFM-223 [19])	normalised response (BT-549 [20])	normalised response (MDA-MB-436 [21])	normalised response (HDQ-P1 [22])	normalised response (CAL-120 [23])	normalised response (CAL-85-1 [24])	normalised response (MDA-MB-453 [25])	normalised response (SK-BR-3 [26])	normalised response (MDA-MB-468 [27])	normalised response (HCC1599 [28])	normalised response (CAL-148 [29])	normalised response (CAL-51 [30])	normalised response (MDA-MB-231 [31])	normalised response (BT-474 [32])	normalised response (Hs578T [33])	normalised response (HCC1937 [34])	normalised response (DU-4475 [35])	normalised response (MCF-10A)	normalised response (HCC1143 [36])
COc1cccc2c1C(=O)c1c(O)c3c(c(O)c1C2=O)C[C@@](O)(C(=O)CO)C[C@@H]3O[C@H]1C[C@H](N)[C@H](O)[C@H](C)O1 [Doxorubicin] (0.1 nM)	95.6%	95%	112%	98.5%	86.9%	84.6%	102%	90.3%	104%	82.8%	97.8%	102%	96.8%	79.6%	110%	86.4%	102%	91.2%	104%	105%	101%	102%	100%	105%	120%	107%	103%	119%	103%	99.3%	105%	107%	101%	101%	104%	98.8%	102%
Cc1ccc(F)c(NC(=O)Nc2ccc(-c3cccc4[nH]nc(N)c34)cc2)c1 [Linifanib] (0.1 nM)	103%	109%	149%	115%	95.4%	94.7%	112%	107%	130%	110%	117%	101%	100%	116%	99.3%	92.4%	110%	116%	105%	97%	107%	102%	101%	98.8%	122%	112%	102%	115%	112%	105%	102%	107%	100%	102%	105%	105%	100%
S=c1[nH]cnc2nc[nH]c12 [Mercaptopurine] (1 nM)	95.9%	107%	80.8%	106%	96.6%	84%	105%	104%	98.7%	97.3%	116%	104%	103%	105%	130%	93.6%	101%	97.6%	97.3%	108%	97.2%	108%	99.5%	96.9%	109%	95.7%	90.8%	98.9%	91.3%	122%	98.2%	90.2%	103%	99.8%	92.4%	95.3%	97.8%
Clc1ccc(C(c2ccccc2Cl)C(Cl)Cl)cc1 (stereo unspecified) [Mitotane] (1 nM)	95.1%	103%	90.9%	112%	99.2%	92.4%	107%	101%	108%	112%	117%	111%	99%	89.9%	118%	83.8%	104%	98%	97.7%	108%	85.8%	97.8%	95.2%	95.5%	96%	95.4%	96.4%	103%	99.4%	109%	93.6%	90.7%	102%	94.5%	95.3%	94.9%	101%
COc1cccc2cc(-c3nc([C@H]4CC[C@H](C(=O)O)CC4)n4ncnc(N)c34)[nH]c12 [OSI-027] (1 nM)	95.9%	93.9%	93.8%	76.9%	96.8%	100%	88.8%	86.9%	90.7%	110%	96.1%	90.3%	83.6%	85.3%	118%	88.9%	87.8%	105%	90.5%	95.5%	86.8%	96.3%	102%	101%	95.4%	91.1%	90.1%	101%	98.7%	88%	93.9%	95.8%	97.9%	97.1%	91.7%	91.4%	92.8%
OC[C@H]1O[C@@H](n2cnc3c2N=CNC[C@H]3O)C[C@@H]1O [Pentostatin] (1 nM)	93.2%	91.7%	99%	108%	114%	99.5%	110%	86.8%	105%	114%	118%	89.3%	96.6%	82.4%	109%	81.8%	102%	96.9%	99.8%	93.8%	83.4%	100%	96.7%	94.8%	107%	108%	101%	121%	104%	111%	98.8%	98.7%	98.4%	100%	103%	107%	103%
N#CC[C@H](C1CCCC1)n1cc(-c2ncnc3[nH]ccc23)cn1 [Ruxolitinib] (1 nM)	98.8%	89.9%	96.9%	85.7%	106%	114%	101%	101%	96.6%	101%	94.5%	89.4%	82.5%	98.2%	102%	102%	104%	101%	90.1%	102%	86.7%	93.5%	93.8%	101%	94.4%	83.5%	101%	93.5%	92.8%	120%	102%	96.8%	95.8%	92.8%	91.9%	82%	93.1%
C=CC[C@@H]1/C=C(\C)C[C@H](C)C[C@H](OC)[C@H]2O[C@@](O)(C(=O)C(=O)N3CCCC[C@H]3C(=O)O[C@H](/C(C)=C/[C@@H]3CC[C@@H](O)[C@H](OC)C3)[C@H](C)[C@@H](O)CC1=O)[C@H](C)C[C@@H]2OC [Tacrolimus] (1 nM)	116%	109%	119%	114%	111%	98.6%	107%	98.2%	110%	99.3%	110%	105%	102%	71%	106%	102%	98.5%	109%	98.5%	96.6%	103%	118%	98%	97.8%	110%	109%	98.7%	103%	103%	93.1%	99.3%	101%	99.1%	98.8%	102%	106%	93.9%
